Assay [1] deals with T1, Glucocorticoid receptor (Homo sapiens, UniProt P04150).
T1 sequence (P04150 whole entry): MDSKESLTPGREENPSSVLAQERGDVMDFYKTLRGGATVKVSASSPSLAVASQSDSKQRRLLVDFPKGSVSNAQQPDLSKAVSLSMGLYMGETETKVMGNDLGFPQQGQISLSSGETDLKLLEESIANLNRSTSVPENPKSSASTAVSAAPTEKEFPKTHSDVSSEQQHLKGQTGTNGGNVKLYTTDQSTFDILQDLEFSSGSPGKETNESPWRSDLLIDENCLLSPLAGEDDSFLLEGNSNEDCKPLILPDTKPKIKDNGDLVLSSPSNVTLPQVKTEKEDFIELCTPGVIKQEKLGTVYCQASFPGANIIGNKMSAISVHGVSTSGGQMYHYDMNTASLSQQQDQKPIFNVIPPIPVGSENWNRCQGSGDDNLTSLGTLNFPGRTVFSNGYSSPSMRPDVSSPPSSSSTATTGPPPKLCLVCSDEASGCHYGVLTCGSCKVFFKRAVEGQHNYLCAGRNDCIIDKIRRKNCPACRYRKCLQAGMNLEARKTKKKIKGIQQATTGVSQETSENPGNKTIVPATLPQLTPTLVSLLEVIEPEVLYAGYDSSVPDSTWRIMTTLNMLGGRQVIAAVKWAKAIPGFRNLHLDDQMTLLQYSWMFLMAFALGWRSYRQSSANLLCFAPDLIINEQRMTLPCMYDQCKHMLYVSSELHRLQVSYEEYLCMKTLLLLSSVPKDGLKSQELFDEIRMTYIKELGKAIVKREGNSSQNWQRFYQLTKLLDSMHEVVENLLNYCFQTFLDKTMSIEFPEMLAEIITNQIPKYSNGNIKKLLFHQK
Put plainly: Agonist activity at glucocorticoid receptor in HFF assessed as inhibition of IL-1-induced IL-6 production after 24 hrs.

Assay [2] concerns the target T1, Glucocorticoid receptor. Put plainly: Displacement of TAMRA-labeled dexamethasone from glucocorticoid receptor (unknown origin) by fluorescence polarization competitive binding assay. (Polarisation of emitted light reports the rotation of a fluorescent probe.)
Assay [3] is filed under the species Homo sapiens. Nature of the assay: Selectivity ratio of IC50 for mineralocorticoid receptor (unknown origin) to IC50 for glucocorticoid receptor (unknown origin).
Assay [4] has as its target T2, Progesterone receptor (Homo sapiens, UniProt P06401).
T2 sequence (P06401 whole entry): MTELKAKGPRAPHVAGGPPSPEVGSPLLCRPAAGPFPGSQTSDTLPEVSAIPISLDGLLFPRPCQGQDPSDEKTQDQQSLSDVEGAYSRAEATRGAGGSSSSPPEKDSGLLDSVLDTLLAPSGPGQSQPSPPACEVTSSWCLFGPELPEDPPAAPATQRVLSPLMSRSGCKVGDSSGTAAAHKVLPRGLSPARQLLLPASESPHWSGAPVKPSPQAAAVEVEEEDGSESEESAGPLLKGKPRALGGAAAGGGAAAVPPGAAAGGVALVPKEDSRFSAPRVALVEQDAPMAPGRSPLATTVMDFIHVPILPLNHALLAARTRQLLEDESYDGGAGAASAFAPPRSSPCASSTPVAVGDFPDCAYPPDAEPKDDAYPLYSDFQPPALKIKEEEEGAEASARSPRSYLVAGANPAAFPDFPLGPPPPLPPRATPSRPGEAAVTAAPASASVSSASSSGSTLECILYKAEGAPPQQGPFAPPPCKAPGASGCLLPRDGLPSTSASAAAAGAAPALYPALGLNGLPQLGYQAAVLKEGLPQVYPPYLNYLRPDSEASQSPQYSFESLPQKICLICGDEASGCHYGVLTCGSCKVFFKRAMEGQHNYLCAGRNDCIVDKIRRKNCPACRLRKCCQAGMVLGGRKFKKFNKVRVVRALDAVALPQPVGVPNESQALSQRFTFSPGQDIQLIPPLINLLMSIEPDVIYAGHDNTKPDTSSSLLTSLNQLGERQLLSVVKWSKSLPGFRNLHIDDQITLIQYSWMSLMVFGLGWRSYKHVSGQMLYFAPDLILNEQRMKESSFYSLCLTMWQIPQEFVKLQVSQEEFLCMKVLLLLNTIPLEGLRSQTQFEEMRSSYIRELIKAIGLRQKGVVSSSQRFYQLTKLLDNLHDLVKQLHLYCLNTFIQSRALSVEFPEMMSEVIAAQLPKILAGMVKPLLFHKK
Nature of the assay: Displacement of TAMRA-labeled mifepristone from progesterone receptor (unknown origin) by fluorescence polarization competitive binding assay.

Assay [5] addresses T3, Mineralocorticoid receptor (Homo sapiens, UniProt P08235).
T3 sequence (P08235 whole entry): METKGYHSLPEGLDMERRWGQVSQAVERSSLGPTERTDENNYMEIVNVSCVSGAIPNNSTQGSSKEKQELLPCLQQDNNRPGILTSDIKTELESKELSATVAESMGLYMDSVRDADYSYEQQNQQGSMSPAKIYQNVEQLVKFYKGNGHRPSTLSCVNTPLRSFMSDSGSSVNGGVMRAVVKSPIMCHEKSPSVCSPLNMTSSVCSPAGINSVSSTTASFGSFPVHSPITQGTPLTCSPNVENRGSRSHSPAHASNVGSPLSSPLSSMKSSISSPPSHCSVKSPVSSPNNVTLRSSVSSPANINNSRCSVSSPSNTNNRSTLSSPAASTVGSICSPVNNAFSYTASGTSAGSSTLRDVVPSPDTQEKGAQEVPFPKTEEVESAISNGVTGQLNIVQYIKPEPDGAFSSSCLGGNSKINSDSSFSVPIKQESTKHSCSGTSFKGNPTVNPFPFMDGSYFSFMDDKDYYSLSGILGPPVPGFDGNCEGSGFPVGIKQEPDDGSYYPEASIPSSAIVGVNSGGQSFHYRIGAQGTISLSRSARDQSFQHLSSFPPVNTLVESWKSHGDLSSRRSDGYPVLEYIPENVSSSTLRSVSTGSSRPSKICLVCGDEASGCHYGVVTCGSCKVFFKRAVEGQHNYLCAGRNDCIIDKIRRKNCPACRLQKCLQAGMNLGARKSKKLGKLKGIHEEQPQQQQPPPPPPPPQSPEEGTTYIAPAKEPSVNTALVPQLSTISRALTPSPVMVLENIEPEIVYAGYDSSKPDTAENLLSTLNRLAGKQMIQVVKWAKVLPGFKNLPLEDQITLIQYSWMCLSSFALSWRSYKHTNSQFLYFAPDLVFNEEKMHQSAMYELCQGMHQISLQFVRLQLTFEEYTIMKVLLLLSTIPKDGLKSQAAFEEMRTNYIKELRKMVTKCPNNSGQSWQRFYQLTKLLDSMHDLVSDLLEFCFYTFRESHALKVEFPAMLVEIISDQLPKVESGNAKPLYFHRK
Nature of the assay: Binding affinity to mineralocorticoid receptor (unknown origin) by fluorescence polarization competitive binding assay.

SMILES strings stand for the structures. Where only a bound is given, the exact number is not on record here.

One may read the IC50 as the midpoint of a concentration-inhibition curve.

With `CC(Cc1c[nH]c2ccccc12)NS(=O)(=O)c1c(Cl)cc(Cl)cc1Cl` (configuration not stated), in assay [1], the IC50 was more than 2000 nM.

Take `Cc1cc(C)c(S(=O)(=O)NC(Cc2c[nH]c3c(C#N)cccc23)C(F)(F)F)c(C)c1` (configuration not stated): the IC50 in assay [2] was determined as 10 nM; in assay [1], 45 nM; in assay [4], 540 nM; in assay [5] it was 70 nM. Further, the Ratio IC50 in assay [3] was determined as 1.

As to `Cc1cc(C)c(S(=O)(=O)NC(Cc2c[nH]c3ccc(C)cc23)C(F)(F)F)c(C)c1` (configuration not stated), the IC50 came to 10 nM in assay [2], 210 nM in assay [1], 6000 nM in assay [4] and 90 nM in assay [5]. Further, the Ratio IC50 in assay [3] came out at 1.

As for `Cc1cc(C)c(S(=O)(=O)NC(Cc2c[nH]c3ccccc23)C(F)(F)F)c(C)c1` (configuration not stated), the IC50 in assay [2] was 15 nM; in assay [1], more than 2000 nM; in assay [4] it was 3600 nM; in assay [5] it was 80 nM.

For `Cc1cc(C)c(S(=O)(=O)NC(Cc2c[nH]c3cc(C#N)ccc23)C(F)(F)F)c(C)c1` (configuration not stated), the IC50 in assay [2] was 280 nM; in assay [1] it was more than 10000 nM; in assay [4], 2000 nM; in assay [5], 280 nM. For the same compound, the Ratio IC50 in assay [3] stood at 1.

For the compound `Cc1cc(C)c(S(=O)(=O)NC(Cc2c[nH]c3cccc(C)c23)C(F)(F)F)c(C)c1` (configuration not stated), the IC50 was 18 nM in assay [2], more than 2000 nM in assay [1], more than 2000 nM in assay [4] and 80 nM in assay [5]. The Ratio IC50 in assay [3] was 1.

For `Nc1cc(Cl)cc(Cl)c1S(=O)(=O)NC(Cc1c[nH]c2ccccc12)C(F)(F)F` (configuration not stated), the IC50 in assay [2] is 10 nM; in assay [1], 56 nM; in assay [4], more than 2000 nM; in assay [5], 270 nM.

In the case of `Cc1cc(C)c(S(=O)(=O)N[C@@H](C)Cc2c[nH]c3ccccc23)c(C)c1`, the IC50 in assay [2] was 40 nM; in assay [1], more than 2000 nM; in assay [4], 1400 nM; in assay [5], 290 nM.

Take `Cc1cc(C)c(S(=O)(=O)NC(Cc2c[nH]c3c(C#N)cc(C)cc23)C(F)(F)F)c(C)c1` (configuration not stated): the IC50 was determined as 5 nM in assay [2], 15 nM in assay [1], 750 nM in assay [4] and 110 nM in assay [5]. Besides, the Ratio IC50 in assay [3] stood at 22.

For `Cc1cc(C)c(S(=O)(=O)NC(CSc2ccccc2)C(F)(F)F)c(C)c1` (configuration not stated), the IC50 was 20 nM in assay [2], more than 10000 nM in assay [1], 2000 nM in assay [4] and 280 nM in assay [5].

`Cc1cc(C)c(S(=O)(=O)NC(Cn2ccc3ncccc32)C(F)(F)F)c(C)c1` (configuration not stated): the IC50 in assay [2] is 340 nM; in assay [1], more than 2000 nM; in assay [4], more than 10000 nM; in assay [5], 220 nM.

`Cc1cc(C)c(S(=O)(=O)NC(Cn2ccc3c(C#N)cccc32)C(F)(F)F)c(C)c1` (configuration not stated): the IC50 in assay [2] is 60 nM; in assay [1] it was more than 10000 nM; in assay [4], 700 nM; in assay [5] it was 100 nM.

Consider `Cc1cc(C)c(S(=O)(=O)NC(COc2ccccc2)C(F)(F)F)c(C)c1` (configuration not stated), for which the IC50 is 210 nM in assay [2], more than 10000 nM in assay [1], 6400 nM in assay [4] and 340 nM in assay [5].

`Cc1cc(C)c(S(=O)(=O)NC(Cn2cc(C#N)c3ccccc32)C(F)(F)F)c(C)c1` (configuration not stated): the half-inhibitory concentration (IC50) in assay [2] was 15 nM; in assay [1], more than 2000 nM; in assay [4], 530 nM; in assay [5], 65 nM.

Turning to `Cc1cc(C)c(S(=O)(=O)NC(Cn2ccc3ccccc32)C(F)(F)F)c(C)c1` (configuration not stated), the IC50 in assay [2] was 25 nM; in assay [1], more than 10000 nM; in assay [4], 2400 nM; in assay [5], 120 nM.

Consider `Cc1cc(C)c(S(=O)(=O)NC(Cc2c[nH]c3c(C)cccc23)C(F)(F)F)c(C)c1` (configuration not stated), for which the IC50 was 20 nM in assay [2], more than 10000 nM in assay [1], 5900 nM in assay [4] and 90 nM in assay [5]. For the same compound, in assay [3], the Ratio IC50 was 1.

Consider `CC(C)(Cc1c[nH]c2ccccc12)NS(=O)(=O)c1c(N)cc(Cl)cc1Cl`, for which the IC50 was 15 nM in assay [2], more than 2000 nM in assay [1], 5300 nM in assay [4] and 470 nM in assay [5].

Take `Cc1cc(C)c(S(=O)(=O)NC(Cc2c[nH]c3cccc(C#N)c23)C(F)(F)F)c(C)c1` (configuration not stated): the IC50 in assay [2] is more than 10000 nM; in assay [4], more than 10000 nM; in assay [5], 170 nM.

Take `Cc1cc(C)c(S(=O)(=O)NC(CNc2ccccc2)C(F)(F)F)c(C)c1` (configuration not stated): the concentration for half-maximal inhibition (IC50) in assay [2] is 95 nM; in assay [1], more than 10000 nM; in assay [4] it was 3200 nM; in assay [5] it was 260 nM.

Consider `CC(Cc1c[nH]c2ccccc12)NS(=O)(=O)c1c(N)cc(Cl)cc1Cl` (configuration not stated), for which the concentration for half-maximal inhibition (IC50) in assay [2] was 5 nM; in assay [1] it was 120 nM; in assay [4] it was more than 2000 nM; in assay [5], 510 nM. The Ratio IC50 in assay [3] is 102.

Turning to `Cc1cc(C)c(S(=O)(=O)NC(Cc2c[nH]c3cc(C)ccc23)C(F)(F)F)c(C)c1` (configuration not stated), the IC50 in assay [2] was 37 nM; in assay [1] it was more than 2000 nM; in assay [4], more than 2000 nM; in assay [5], 140 nM. Also, the Ratio IC50 in assay [3] came out at 1.

Turning to `Cc1cc(C)c(S(=O)(=O)NC(Cc2c[nH]c3ccc(C#N)cc23)C(F)(F)F)c(C)c1` (configuration not stated), the concentration for half-maximal inhibition (IC50) is 320 nM in assay [2], more than 10000 nM in assay [1], more than 10000 nM in assay [4] and 210 nM in assay [5]. For the same compound, the Ratio IC50 in assay [3] came out at 1.

For the compound `O=S(=O)(NC(Cc1c[nH]c2ccccc12)C(F)(F)F)c1c(Cl)cc(Cl)cc1Cl` (configuration not stated), the half-inhibitory concentration (IC50) is 35 nM in assay [2], more than 2000 nM in assay [1], 3500 nM in assay [4] and 80 nM in assay [5].
